Laboratory results taken from patent US5112807A, “Compound "Leualacin", its preparation and its use in the treatment of cardiovascular disorders” (Sankyo Company, Limited, priority 1988, dated 1992).

How the values were obtained:
tenia caecum = test: Calcium antagonizing action in the tenia caecum; type: cell-based, guinea pigs; conditions: 30 minutes incubation, calcium chloride-induced contraction
Protocol: The calcium antagonizing activity in the tenia caecum was measured according to the method of M. Spedding [Naunyn-Schmiedeberg's Arch. Pharmacol. 318, 234-240(1982)]. Male guinea pigs weighing 250 to 300 g were laparotomized under pentobarbital anesthesia and the tenia was immediately removed from the caecum. The tenia was cut into strips of 6-7 cm length and suspended in a Magnus vessel filled with 20 ml of Tyrode's solution without calcium aerated with a mixed gas (O2 95%-CO2 5% by volume). After the specimen had eguilibrated by standing for 1 hour under the above conditions, 0.2 ml each of 30, 100 and 300 mM aqueous calcium chloride solutions were cumulatively added at 3 minute intervals and the contraction of the specimen was measured. After the measurements, the specimen was washed twice with Tyrode's solution without calcium and left for 30 minutes. The specimen was then incubated with Leualacin for 30 minutes, after which 0.2 ml each of 30, 100 and 300 mM calcium chloride solutions were cumulatively added at 3 minute intervals in the same manner as above, and the contraction was again measured. The contraction after the treatment with the Leualacin solution was deducted from that after the treatment with the calcium chloride solution alone and the value obtained was divided by the contraction after the treatment with the calcium chloride solution alone, to give the antagonizing rate.

[1] = Chemical and physical properties: description and solubility; type: physicochemical
From the text: Leualacin has the molecular structure shown above and the following chemical and physical properties: […]

[2] = system: SHR (spontaneously hypertensive rats); test: Antihypertensive activity in SHR; type: in vivo; conditions: conscious male SHR
Protocol: Male SHR (spontaneously hypertensive rats), 15 weeks old, were anesthetized with sodium pentobarbital (50 mg/kg intraperitoneally). and a polyethylene cannula was inserted through the left femoral artery into the abdominal aorta. The other end of the cannula was led out of the body and fixed at the back of the neck. One week after the operation, when the animal had recovered from the stress of the surgery, the other end of the cannula was connected to a blood pressure transducer, which was constructed according to the directions of Laffan et al. [Laffan, P. J., Peterson A., Hitch S. W. and Jeunelot C., Cardiovascular Res. 6, 319-324 (1972)], but with slight modifications. The blood pressure and heart rate of the conscious and unstressed SHR were measured. After the blood pressure and the heart rate had stabilised for more than one hour, the test drug was administered by gavage. After administration of the test sample, the blood pressure and the heart rate were measured every 15 minutes over a […] is shown in Table 2.

[3] = molecular target: T1, calcium channel (3H-nitrendipine binding to microsome fraction prepared from porcine heart) (Sus scrofa, UniProt A0A8W4FNC0); test: Radioligand binding assay: inhibition of 3H-nitrendipine binding to microsomes; conditions: 200 PM 3H-nitrendipine, 25° C., 30 minutes, pH 7.4, read-out: ID50, inhibition of binding of 3H-nitrendipine to microsomes (converted)
T1 construct: 15 to 20 μg of a microsome fraction prepared from porcine heart; from tissue; host or cells: porcine heart microsome fraction
T1 sequence (A0A8W4FNC0 1-2067): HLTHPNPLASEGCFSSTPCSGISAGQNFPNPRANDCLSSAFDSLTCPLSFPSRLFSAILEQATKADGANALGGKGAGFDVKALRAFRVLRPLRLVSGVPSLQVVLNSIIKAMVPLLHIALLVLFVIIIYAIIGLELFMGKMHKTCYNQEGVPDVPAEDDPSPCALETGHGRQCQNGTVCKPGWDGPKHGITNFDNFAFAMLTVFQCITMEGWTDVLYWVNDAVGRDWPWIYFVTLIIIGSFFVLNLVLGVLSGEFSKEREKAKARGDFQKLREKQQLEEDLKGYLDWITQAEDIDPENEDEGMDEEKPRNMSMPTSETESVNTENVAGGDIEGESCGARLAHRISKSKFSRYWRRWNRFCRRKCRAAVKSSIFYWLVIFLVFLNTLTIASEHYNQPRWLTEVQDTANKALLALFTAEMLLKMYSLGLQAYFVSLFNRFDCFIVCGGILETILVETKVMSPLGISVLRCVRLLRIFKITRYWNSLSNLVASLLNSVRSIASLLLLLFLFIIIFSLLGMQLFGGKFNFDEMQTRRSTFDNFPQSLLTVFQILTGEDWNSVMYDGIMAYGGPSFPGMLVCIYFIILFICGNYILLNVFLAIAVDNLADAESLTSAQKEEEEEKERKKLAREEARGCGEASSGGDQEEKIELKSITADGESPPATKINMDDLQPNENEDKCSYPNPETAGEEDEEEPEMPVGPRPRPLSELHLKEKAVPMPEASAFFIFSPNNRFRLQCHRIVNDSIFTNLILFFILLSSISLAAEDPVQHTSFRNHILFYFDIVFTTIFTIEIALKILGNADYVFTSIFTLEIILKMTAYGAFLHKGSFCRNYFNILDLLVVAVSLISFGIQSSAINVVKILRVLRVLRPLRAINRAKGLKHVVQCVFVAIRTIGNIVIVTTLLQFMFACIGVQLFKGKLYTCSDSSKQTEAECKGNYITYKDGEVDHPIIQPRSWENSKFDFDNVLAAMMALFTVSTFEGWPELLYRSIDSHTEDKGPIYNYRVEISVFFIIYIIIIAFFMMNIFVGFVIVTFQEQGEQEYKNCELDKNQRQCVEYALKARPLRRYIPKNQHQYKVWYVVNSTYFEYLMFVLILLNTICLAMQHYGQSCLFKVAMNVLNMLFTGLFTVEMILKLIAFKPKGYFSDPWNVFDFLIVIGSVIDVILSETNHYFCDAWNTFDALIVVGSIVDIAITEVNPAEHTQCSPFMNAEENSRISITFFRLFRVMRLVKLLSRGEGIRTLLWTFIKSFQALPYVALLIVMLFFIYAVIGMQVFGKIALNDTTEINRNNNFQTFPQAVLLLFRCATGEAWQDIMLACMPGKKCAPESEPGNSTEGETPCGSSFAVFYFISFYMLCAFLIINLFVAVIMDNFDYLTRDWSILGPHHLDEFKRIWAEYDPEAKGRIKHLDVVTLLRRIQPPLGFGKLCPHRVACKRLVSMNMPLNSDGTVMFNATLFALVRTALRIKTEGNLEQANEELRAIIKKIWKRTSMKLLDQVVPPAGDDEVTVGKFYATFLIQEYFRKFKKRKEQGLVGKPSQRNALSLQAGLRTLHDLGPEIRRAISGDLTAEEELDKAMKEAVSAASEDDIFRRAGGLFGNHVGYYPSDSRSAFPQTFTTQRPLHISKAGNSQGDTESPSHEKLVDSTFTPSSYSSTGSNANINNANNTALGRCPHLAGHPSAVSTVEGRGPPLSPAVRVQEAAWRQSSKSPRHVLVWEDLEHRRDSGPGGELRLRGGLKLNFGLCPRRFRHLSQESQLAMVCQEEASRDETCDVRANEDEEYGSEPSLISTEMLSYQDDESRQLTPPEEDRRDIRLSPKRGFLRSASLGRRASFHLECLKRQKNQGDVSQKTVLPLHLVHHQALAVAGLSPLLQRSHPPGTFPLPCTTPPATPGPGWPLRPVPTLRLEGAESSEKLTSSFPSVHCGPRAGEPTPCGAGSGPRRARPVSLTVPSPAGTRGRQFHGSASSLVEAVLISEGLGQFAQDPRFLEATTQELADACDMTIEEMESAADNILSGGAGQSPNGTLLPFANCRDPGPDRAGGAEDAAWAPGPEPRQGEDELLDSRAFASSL
From the text: The progress of the cultivation and the amount of Leualacin produced as the culture proceeds can be determined by a radio ligand binding assay method, that is, for example, the method of […] and R. E. Oswald [Journal of Biological Chemistry, 260, 8456-8464 (1985)] which is based on the ability of Leualacin to inhibit the binding of ^3 H-nitrendipine to microsomes. High performance liquid chromatography may also be used. […] This experiment used a radioligand binding assay method, which is a modification of the method of […] and R. E. Oswald [Journal of Biological Chemistry, 260, 8456-8464 [(1985)], to determine the activity which inhibits the binding of ^3 H-nitrendipine to microsomes. The reaction was carried out at 25° C. for 30 minutes in 1 ml of a reaction mixture comprising 15 to 20 μg of a microsome fraction prepared from porcine heart, 200 PM ^3 H-nitrendipine (NEN-Dupont Pharmaceuticals, specific activity 88.1 Ci/mM), 50 mM NaOH-HEPES buffer (pH 7.4) and 0.5% by volume ethanol. (HEPES is N-2-hydroxyethylpiperazine-N'-2-ethanesulfonic acid). […] The glass-fibre filter was then put in a vial and OPTIFLUOR (Packard Co., Ltd.) was used as the scintillator and the radioactivity (as disintegrations per minute) was measured.

mice = test: Acute toxicity; type: in vivo; conditions: orally, 200 mg/kg
Protocol: No toxicity was noted when Leualacin was orally administered to mice at a dose of 200 mg/kg, which is far in excess of any reasonable therapeutic dose.

CC(C)CC1NC(=O)C(CC(C)C)OC(=O)CCNC(=O)C(Cc2ccccc2)N(C)C(=O)C(CC(C)C)OC1=O (centres unmarked) [Leualacin, 11-benzyl-2,5,8-triisobutyl-10-methyl-1,7-dioxa-4,10,13-triazacyclohexadec ane-3,6,9,12,16-pentone]
Antagonizing rate (%) (tenia caecum; Leualacin 10^-6 g/ml): 97%
Antagonizing rate (%) (tenia caecum; Leualacin 10^-7 g/ml): 73%
Antagonizing rate (%) (tenia caecum; Leualacin 10^-8 g/ml): 22%
Antagonizing rate (%) (tenia caecum; Leualacin 10^-9 g/ml): 0%
Description [1]: neutral, fat-soluble
Solubility in organic solvents ([1]; methanol, acetone, chloroform and ethyl acetate): Soluble
Solubility in water ([1]; water): insoluble
Decrease of blood pressure (mmHg) ([2]; 100 μg/kg by gavage): 44 mmHg
Decrease of blood pressure (mmHg) ([2]; 300 μg/kg by gavage): 57 mmHg
IC50 [3]: 1730 nM
Acute toxicity (mice): No toxicity
